In ChEMBL document CHEMBL1201862, “PubChem BioAssay data set” (2004):
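Each compound was tested at five concentrations against cells in 96-well plates for 48 hours. GI50 is the concentration that inhibits growth by half.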 Activity calls are given as the source filed them. Cut-off read from the data, not from the text of the source: active = GI50 up to about 1.1 µM and inactive = higher.

How the values were obtained:
Experiment in all cases: DTP human tumour cell line panel, 48 h
[1] = system: MDA-MB-231
[2] = system: COLO 205
[3] = system: IGROV-1
[4] = system: A498
[5] = system: OVCAR-8
[6] = system: MOLT-4
[7] = system: UACC-257
[8] = system: SNB-75
[9] = system: HT-29
[10] = system: OVCAR-4
[11] = system: K562
[12] = system: KM12
[13] = system: ACHN
[14] = system: HCC 2998
[15] = system: SF-539
[16] = system: 786-0
[17] = system: Hs-578T
[18] = system: SK-MEL-2
[19] = system: Malme-3M

Measured: GI50

C=CCOc1ccccc1C1(O)c2ccccc2C2=NCCCN21 (configuration not stated)
inactive: [1] > 100 µM | [2] 21.4 µM | [3] 16.8 µM | [4] > 100 µM | [5] 19.5 µM | [6] 32.9 µM | [7] 30.9 µM | [8] 15.1 µM | [9] 19.5 µM | [10] 70.3 µM | [11] 45.3 µM | [12] 32.4 µM | [13] 37.8 µM | [14] 15.7 µM | [15] 17.6 µM | [16] 47.3 µM | [17] 77.8 µM

CSc1ccc(NC(=O)CCl)cc1
inactive: [1] 7.31 µM | [2] 3.02 µM | [3] 4.73 µM | [5] 3.51 µM | [6] 3.4 µM | [7] 6.18 µM | [18] 1.81 µM | [8] 2.53 µM | [9] 3.65 µM | [10] > 10 µM | [11] 3.13 µM | [12] > 10 µM | [13] > 10 µM | [14] 2.18 µM | [15] 3.95 µM | [16] 6.38 µM | [17] 3.1 µM

CC1(C)Cc2c(c3ccccc3c3nc4c(nc23)c2c(c3ccccc34)OC(C)(C)C2)O1
inactive: [1] > 100 µM | [2] > 100 µM | [3] > 100 µM | [4] > 100 µM | [5] > 100 µM | [6] > 100 µM | [7] > 100 µM | [18] > 100 µM | [9] > 100 µM | [10] > 100 µM | [12] > 100 µM | [13] > 100 µM | [14] > 100 µM | [15] > 100 µM | [19] > 100 µM | [16] > 100 µM | [17] 39.4 µM

Cc1ccc(C(=O)O)cc1S(=O)(=O)Nn1cnc2ccc(S(=O)(=O)Nc3ccccc3C(=O)O)cc2c1=O
inactive: [1] > 100 µM | [2] 31.6 µM | [3] 60.7 µM | [5] > 100 µM | [6] > 100 µM | [7] > 100 µM | [18] 61 µM | [8] > 100 µM | [9] > 100 µM | [10] > 100 µM | [11] 1.78 µM | [12] 10.9 µM | [13] > 100 µM | [14] > 100 µM | [15] > 100 µM | [19] > 100 µM | [16] > 100 µM | [17] > 100 µM

Nc1nc(-c2ccccc2)nc2c1[n+]([O-])c1ccccc1[n+]2[O-]
inactive: [1] > 100 µM | [2] > 100 µM | [3] > 100 µM | [4] > 100 µM | [5] > 100 µM | [7] > 100 µM | [18] > 100 µM | [9] > 100 µM | [11] > 100 µM | [12] > 100 µM | [13] > 100 µM | [14] > 100 µM | [15] > 100 µM | [19] > 100 µM | [16] > 100 µM | [17] > 100 µM

Oc1cc(-c2ccccc2)nc2c(S)cccc12
inactive: [1] 62.5 µM | [2] > 100 µM | [3] > 100 µM | [5] > 100 µM | [6] 47.3 µM | [7] > 100 µM | [8] 23.5 µM | [9] > 100 µM | [10] > 100 µM | [11] 81.3 µM | [12] > 100 µM | [13] 95.3 µM | [14] > 100 µM | [15] > 100 µM | [19] > 100 µM | [16] > 100 µM | [17] > 100 µM

Cc1cc(C)n(C(=O)CSc2nnc(SCC(=O)n3nc(C)cc3C)s2)n1
inactive: [1] > 100 µM | [2] > 100 µM | [4] > 100 µM | [5] > 100 µM | [6] > 100 µM | [7] > 100 µM | [8] 40 µM | [10] > 100 µM | [11] > 100 µM | [12] > 100 µM | [13] > 100 µM | [14] > 100 µM | [15] > 100 µM | [16] > 100 µM | [17] 33.8 µM

N#CC(C#N)=C1C(=Cc2ccc(OCCCCCCCCCCSSCCCCCCCCCCOc3ccc(C=C4C(=C(C#N)C#N)c5ccccc5C4=C(C#N)C#N)cc3)cc2)C(=C(C#N)C#N)c2ccccc21
inactive: [1] 28.6 µM | [3] 42 µM | [4] 18.7 µM | [5] 31 µM | [6] 23.6 µM | [7] 39.5 µM | [18] 25.8 µM | [8] 25.7 µM | [9] 19.2 µM | [10] 21.8 µM | [11] 23.7 µM | [12] 25.4 µM | [13] 36.7 µM | [14] 14.7 µM | [15] 16.1 µM | [16] 21.8 µM | [17] 20.4 µM

C=CCC1(c2ccc(OC)cc2)C=CC(=O)CC1 (configuration not stated)
inactive: [1] 92.7 µM | [2] > 100 µM | [3] > 100 µM | [5] > 100 µM | [6] 28.6 µM | [7] > 100 µM | [8] 19.4 µM | [9] > 100 µM | [10] > 100 µM | [11] 40.2 µM | [12] > 100 µM | [13] > 100 µM | [14] > 100 µM | [15] > 100 µM | [16] > 100 µM | [17] 28.5 µM

CC(=O)[C@]12OC(=O)C3=C1[C@H](CC[C@@H]3C)[C@@H](C)C[C@H]2C=C(C)C
inactive: [1] 8.2 µM | [2] 8.79 µM | [3] 7.35 µM | [4] 7.96 µM | [5] 8.49 µM | [6] 10 µM | [7] 9.75 µM | [18] 7.82 µM | [9] 6.79 µM | [11] 5.6 µM | [12] 7.62 µM | [13] 8.11 µM | [15] 9.14 µM | [16] 8.55 µM | [17] 8.18 µM

COC(=O)[C@]1(c2cc3ccccc3n2S(=O)(=O)c2ccccc2)CC2CN(C(=O)OCc3ccccc3)C1C1OC(C)(C)OC21 (some centres not stated)
inactive: [1] > 100 µM | [2] > 100 µM | [3] > 100 µM | [5] > 100 µM | [6] > 100 µM | [7] > 100 µM | [18] > 100 µM | [8] 80.4 µM | [9] > 100 µM | [10] > 100 µM | [12] > 100 µM | [13] > 100 µM | [14] > 100 µM | [19] 2.09 µM | [16] > 100 µM | [17] > 100 µM

CCOC(=O)C1(C(=O)OCC)CCCN1C(=O)[C@H](CNC(=O)OC(C)(C)C)NC(=O)OCc1ccccc1
inactive: [1] > 100 µM | [2] > 100 µM | [3] > 100 µM | [6] 27.8 µM | [7] > 100 µM | [18] > 100 µM | [8] 79.6 µM | [9] > 100 µM | [10] > 100 µM | [11] 32.8 µM | [12] > 100 µM | [13] > 100 µM | [14] 67.6 µM | [15] > 100 µM | [16] > 100 µM | [17] > 100 µM
